Data published in ChEMBL document CHEMBL6127060, “Bioisosteric replacement of the carboxylic acid group in Hepatitis-C virus NS5B thumb site II inhibitors: phenylalanine derivatives” (Eur J Med Chem, 2024).
Blank lines part the entries; values can stand above or below the compound they belong to.

Assays:
[1] = biological target: Hepatitis C virus NS5B RNA-dependent RNA polymerase (Hepatitis C virus, UniProt Q8JXU8); test: Inhibition of Hepatitis C virus NS5B polymerase; parameters: species or system Hepacivirus hominis
[2] = Cytotoxicity against human Huh-7 cells assessed as cell viability; type: toxicity, cell-based
[3] = tested on: Hepatitis C virus; test: Antiviral activity against Hepatitis C virus genotype 1b infected in human Huh-7 cells assessed as inhibition of viral growth incubated for 3 days; type: functional, organism-based, Hepacivirus hominis; details: Huh-7, 72 h
[4] = tested on: Hepatitis C virus; test: Antiviral activity against Hepatitis C virus; type: functional, organism-based, Hepacivirus hominis

Chain of Hepatitis C virus NS5B RNA-dependent RNA polymerase (Q8JXU8 whole entry): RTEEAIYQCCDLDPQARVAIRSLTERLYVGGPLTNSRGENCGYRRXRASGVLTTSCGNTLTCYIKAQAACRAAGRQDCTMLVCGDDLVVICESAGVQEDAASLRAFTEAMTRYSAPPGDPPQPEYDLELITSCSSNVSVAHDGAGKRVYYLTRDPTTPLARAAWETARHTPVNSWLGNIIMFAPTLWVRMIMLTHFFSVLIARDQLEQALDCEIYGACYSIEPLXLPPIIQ

- IC50 [1]: 0.7 µM
SMILES: O=C(O)[C@H](Cc1ccccc1)N(Cc1cccc([N+](=O)[O-])c1)C(=O)c1ccc(Cl)cc1Cl

SMILES: O=C(O)[C@H](Cc1ccccc1)N(Cc1cccc(C(F)(F)F)c1)C(=O)c1ccc(Cl)cc1Cl
- IC50 [1]: 1.7 µM

- IC50 [1]: 0.8 µM
SMILES: N#Cc1cccc(CN(C(=O)c2ccc(Cl)cc2Cl)[C@@H](Cc2ccccc2)C(=O)O)c1

SMILES: N/C(=N\O)C(Cc1ccccc1)N(Cc1cccc(F)c1)C(=O)c1ccc(Cl)cc1Cl (stereo not given)
- CC50 [2]: > 50 µM
- EC50 [3]: > 50 µM

SMILES: O=C(c1ccc(Cl)cc1Cl)N(Cc1cccc(C(F)(F)F)c1)C(Cc1ccccc1)c1noc(=O)[nH]1 (stereo not given)
- CC50 [2]: 49.2 µM
- EC50 [3]: > 50 µM

SMILES: N/C(=N\O)C(Cc1ccccc1)N(Cc1cccc([N+](=O)[O-])c1)C(=O)c1ccc(Cl)cc1Cl (stereo not given)
- CC50 [2]: 18.2 µM
- EC50 [3]: 11.3 µM

SMILES: O=C(c1ccc(Cl)cc1Cl)N(Cc1cccc(Br)c1)C(Cc1ccccc1)c1noc(=O)[nH]1 (stereo not given)
- CC50 [2]: > 50 µM
- EC50 [3]: > 50 µM

SMILES: N#CC(Cc1ccccc1)N(Cc1cccc(Br)c1)C(=O)c1ccc(Cl)cc1Cl (stereo not given)
- CC50 [2]: > 50 µM
- EC50 [3]: > 50 µM

SMILES: CC(C)(C)C(=O)OCn1c(C(Cc2ccccc2)N(Cc2cccc([N+](=O)[O-])c2)C(=O)c2ccc(Cl)cc2Cl)noc1=S (stereo not given)
- CC50 [2]: > 50 µM
- EC50 [3]: > 50 µM

SMILES: O=C(c1ccc(Cl)cc1Cl)N(Cc1cccc(F)c1)C(Cc1ccccc1)c1noc(=O)[nH]1 (stereo not given)
- CC50 [2]: > 50 µM
- EC50 [3]: > 50 µM

SMILES: O=C(c1ccc(Cl)cc1Cl)N(Cc1cccc(C(F)(F)F)c1)C(Cc1ccccc1)c1noc(=S)[nH]1 (stereo not given)
- CC50 [2]: > 50 µM
- EC50 [3]: > 50 µM

SMILES: Cn1c(C(Cc2ccccc2)N(Cc2cccc(C(F)(F)F)c2)C(=O)c2ccc(Cl)cc2Cl)noc1=S (stereo not given)
- CC50 [2]: > 50 µM
- EC50 [3]: 8.09 µM

SMILES: O=C(c1ccc(Cl)cc1Cl)N(Cc1cccc([N+](=O)[O-])c1)C(Cc1ccccc1)c1noc(=O)[nH]1 (stereo not given)
- CC50 [2]: > 50 µM
- EC50 [3]: > 50 µM

SMILES: CC1CCC(C(=O)N(C)c2ccc(Oc3ccccc3C(F)(F)F)cc2C(=O)O)CC1 (stereo not given)
- EC50 [4]: 1.1 µM
- IC50 [1]: 0.2 µM

SMILES: N#CC(Cc1ccccc1)N(Cc1cccc([N+](=O)[O-])c1)C(=O)c1ccc(Cl)cc1Cl (stereo not given)
- CC50 [2]: > 50 µM
- EC50 [3]: 5.19 µM

SMILES: CC(C)(C)C(=O)OCn1c(C(Cc2ccccc2)N(Cc2cccc(C(F)(F)F)c2)C(=O)c2ccc(Cl)cc2Cl)noc1=S (stereo not given)
- CC50 [2]: > 50 µM
- EC50 [3]: > 50 µM

SMILES: O=C(c1ccc(Cl)cc1Cl)N(Cc1cccc([N+](=O)[O-])c1)C(Cc1ccccc1)c1noc(=S)[nH]1 (stereo not given)
- CC50 [2]: > 50 µM
- EC50 [3]: > 50 µM

SMILES: N#CC(Cc1ccccc1)N(Cc1cccc(F)c1)C(=O)c1ccc(Cl)cc1Cl (stereo not given)
- CC50 [2]: > 50 µM
- EC50 [3]: 3.72 µM

SMILES: N#CC(Cc1ccccc1)N(Cc1cccc(C(F)(F)F)c1)C(=O)c1ccc(Cl)cc1Cl (stereo not given)
- CC50 [2]: > 50 µM
- EC50 [3]: > 50 µM

SMILES: N/C(=N\O)C(Cc1ccccc1)N(Cc1cccc(Br)c1)C(=O)c1ccc(Cl)cc1Cl (stereo not given)
- CC50 [2]: 16.1 µM
- EC50 [3]: 6.36 µM

SMILES: O=C(c1ccc(Cl)cc1Cl)N(Cc1cccc(Br)c1)C(Cc1ccccc1)c1noc(=S)[nH]1 (stereo not given)
- CC50 [2]: > 50 µM
- EC50 [3]: > 50 µM

SMILES: O=C(c1ccc(Cl)cc1Cl)N(Cc1cccc(F)c1)C(Cc1ccccc1)c1noc(=S)[nH]1 (stereo not given)
- CC50 [2]: > 50 µM
- EC50 [3]: > 50 µM

SMILES: N/C(=N\O)C(Cc1ccccc1)N(Cc1cccc(C(F)(F)F)c1)C(=O)c1ccc(Cl)cc1Cl (stereo not given)
- CC50 [2]: 11 µM
- EC50 [3]: 3.91 µM

SMILES: CC1=CC[C@H](C(=O)N(c2cc(C#CC(C)(C)C)sc2C(=O)O)[C@H]2CC[C@](O)(CO[C@H]3CCOC3)CC2)CC1 [RADALBUVIR]
- CC50 [2]: > 50 µM
- EC50 [3]: 0.052 µM
